Structures can show the parent of a compound that is named as a salt.

For this test, the target named is σ1-receptor (Cavia porcellus (Guinea pig), UniProt Q60492). Description: σ1-receptor binding assay with [3H]-(+)-pentazocine in guinea pig brain membranes. The settings on record: radioligand [3H]-(+)-pentazocine 5.0 nM, 150 min at 37° C. On the procedure:
Brain membrane preparation and binding assays for the σ1-receptor were performed as described (DeHaven-Hudkins, D. L., L. C. Fleissner, and F. Y. Ford-Rice, 1992, Characterization of the binding of [^3H](+)pentazocine to a recognition sites in guinea pig brain, Eur. J. Pharmacol. 227, 371-378) with some modifications. Guinea pig brains were homogenized in 10 vols. (w/v) of Tris-HCl 50 mM 0.32 M sucrose, pH 7.4, with a Kinematica Polytron PT 3000 at 15000 r.p.m. for 30 s. The homogenate was centrifuged at 1000 g for 10 min at 4° C. and the supernatants collected and centrifuged again at 48000 g for 15 min at 4° C. The pellet was resuspended in 10 volumes of Tris-HCl buffer (50 mM, pH 7.4), incubated at 37° C. for 30 min, and centrifuged at 48000 g for 20 min at 4° C. Following this, the pellet was re-suspended in fresh Tris-HCl buffer (50 mM, pH 7.4) and stored on ice until use.
The radioligand used was [^3H]-(+)-pentazocine at 5.0 nM and the final volume was 200 μl. The incubation was initiated with the addition of 100 μl of membrane at a final tissue concentration of approximately 5 mg tissue net weight/mL and the incubation time was 150 m. at 37° C. After incubation, the membranes were collected onto pretreated glass fiber filterplate (MultiScreen-FC, Millipore), with polyethylenimine 0.1%. The filters were washed two times with 200 μl of washing buffer (50 mM Tris Cl, pH=7.4) and then 25 μl of Ecoscint H liquid scintillation cocktail were added. Microplates were allowed to set for several hours and then quantified by liquid scintillation spectrophotometry (1450 Microbeta, Wallac). Nonspecific binding was determined with 1 μM haloperidol.

Sequence of σ1-receptor (Q60492 whole entry): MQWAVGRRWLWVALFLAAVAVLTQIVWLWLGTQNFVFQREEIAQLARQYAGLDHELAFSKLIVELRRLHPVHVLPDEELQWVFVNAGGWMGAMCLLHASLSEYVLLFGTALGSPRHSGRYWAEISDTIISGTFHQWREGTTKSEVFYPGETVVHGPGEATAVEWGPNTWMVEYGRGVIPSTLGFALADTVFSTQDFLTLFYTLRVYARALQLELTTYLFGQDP

What is called Ki is the equilibrium dissociation constant of an inhibitor or competing ligand from its target. A lower Ki goes with higher affinity. With `c1ccc(-c2cn3cc(COCCN4CCCC4)nc3s2)cc1` [Compound 10, 2-phenyl-6-((2-(pyrrolidin-1-yl)ethoxy)methyl)imidazo[2,1-b]thiazole maleate], the Ki was 190 nM. Compound `c1ccc(-c2nn3cc(COCCN4CCCCCC4)nc3s2)cc1` [Compound 4, 6-((2-(azepan-1-yl)ethoxy)methyl)-2-phenylimidazo[2,1-b][1,3,4]thiadiazole maleate] yielded a Ki of 168 nM.

The compound `CN1CCN(Cc2cn3cc(-c4ccccc4)sc3n2)CC1` [Compound 7, 6-((4-methylpiperazin-1-yl)methyl)-2-phenylimidazo[2,1-b]thiazole maleate] yielded a Ki of 56 nM. The same measure for `CN1CCN(Cc2cn3nc(-c4ccccc4)sc3n2)CC1` [Compound 11, 6-((4-methylpiperazin-1-yl)methyl)-2-phenylimidazo[2,1-b][1,3,4]thiadiazole maleate]: 260 nM; for `c1ccc(-c2cn3cc(CN4CCCCCC4)sc3n2)cc1` [Compound 12, 2-(azepan-1-ylmethyl)-6-phenylimidazo[2,1-b]thiazole maleate]: 100 nM. For `c1ccc(-c2cn3cc(CN4CCCCCC4)nc3s2)cc1` [Compound 6, 6-(azepan-1-ylmethyl)-2-phenylimidazo[2,1-b]thiazole maleate] the value was 16 nM; for `CN1CCN(Cc2cn3cc(-c4ccc(F)cc4)sc3n2)CC1` [Compound 13, 2-(4-fluorophenyl)-6-((4-methylpiperazin-1-yl)methyl)imidazo[2,1-b]thiazole maleate], 210 nM. For `c1ccc(-c2cn3cc(COCCN4CCCCCC4)nc3s2)cc1` [Compound 9, 6-((2-(azepan-1-yl)ethoxy)methyl)-2-phenylimidazo[2,1-b]thiazole maleate] the value was 40 nM.

(Values after US9617281B2, “Imidazo[2,1-b]thiazole derivatives, their preparation and use as medicaments” (LABORATORIOS DEL DR. ESTEVE S.A., priority 2012, dated 2017).)
